According to patent US12622910B2, “Inhibitors of Bruton's tyrosine kinase and methods of their use” (Janssen Pharmaceutica NV, priority 2021, dated 2026):

Tests used:
[1] = Protein binding in RPMI culture media containing 10% FBS; assay type: in vitro ADME; settings: bovine, read-out: % free in RPMI culture media containing 10% FBS
[2] = Population PK model and simulations; design: species or system human
BTK [3] = molecular target: BTK (Homo sapiens, UniProt Q06187); assay: Phase 1 study, BTK occupancy in PBMCs; assay type: in vivo; design: measuring free BTK levels in peripheral blood mononuclear cells (PBMCs) and calculating % BTKO; endogenous in cells; host or cells: human PBMCs, lysed after isolation from whole blood; settings: for BTKO at 24 hr, ss, median observed / Calculated Average BTKO, observed / Max BTKO at ss, median observed: Day 10 oral solution; for mean BTKO: all MAD dose groups
Method: Pharmacodynamics (BTKO)—In Part 1, venous blood samples (8 mL) were collected predose and at 1, 2, 4, 8, 12, 24, 48, and 72 hours post-dose for measuring free BTK levels in peripheral blood mononuclear cells (PBMCs) and calculating % BTKO. In Part 2, blood samples were taken on day 1 predose and at 2, 4, and 8 hours after dosing; days 2-10 predose and 4 hours post-dose; and at 24, 48, and 72 hours after the last dose and at the follow-up visit.
After PBMCs were isolated from whole blood, they were lysed and prepared for the measurement of BTK occupancy using a custom streptavidin-coated Meso Scale Discovery (MSD) immunoassay. Percent occupancy was calculated as 100%×([Baseline free BTK−Free BTK with treatment]/Baseline Free BTK).

[4] = molecular target: 278 human wild type kinases; assay: Full human wild-type kinase panel (KinaseProfiler); assay type: biochemical; settings: 1 micromolar
Method: RESULTS AND DISCUSSION—Selectivity—The compound of Formula (III) was evaluated in three selectivity panels to assess the potential for off-target pharmacology (Table 8). […] The kinase off-target profile of The compound of Formula (III) was assessed in a full human wild-type panel using radiometric kinase activity assays (KinaseProfiler™ and IC50Profiler™; Eurofins Scientific) (Table 9; FIG. 23). The compound of Formula (III) inhibited 4/278 kinases >50% at 1 micromolar, identifying BTK and the three other kinases having analogous Cys residues with the potential for covalent inhibition (BMX, TEC, BLK). […]. The cellular kinase selectivity of The compound of Formula (III) was established in native Ramos B cell kinome assays (KiNativ™; ActivX) confirmed BTK as the primary target with inhibition of BLK and TEC inhibition detected (Table 10).

BTK [5] = molecular target: T1, BTK (Rattus norvegicus, UniProt Q5S255); assay: Rat in vivo BTK target engagement (occupancy ELISA in blood); design: species or system female Wistar rat; settings: read-out: BTK target occupancy after 8 and 24 hours
T1 construct: Cell lysates were prepared from the blood samples using cell lysis buffer; from tissue; host or cells: blood of female Wistar rats (cell lysates)
Method: In Vivo BTK Engagement—BTK receptor occupancy and plasma concentrations of the Compound of Formula (III) increased in a dose-dependent manner following a single oral dose in rat (FIG. 15). Doses of 2 mg/kg or higher consistently achieved sustained target occupancy after 8 and 24 hours (>75% following a 2 mg/kg dose, ≥88% following a 3 mg/kg dose, and ≥99% following a 10 mg/kg dose). Target occupancy was maintained at 24 h even after parent drug plasma levels decreased, indicating persistent BTK occupancy, a hallmark of the covalent mechanism. Considering that 70% to 80% BTK target engagement for 7 to 8 hours in a chronic dosing regimen is associated with anti-inflammatory activity in rodent efficacy models, 75% target engagement at 7.5 hours was identified as the desired level of target engagement.
BTK Occupancy PK/PD Model—Rat in vivo target engagement—Two studies were conducted in which the compound of Formula (III) formulated in 20% HPCD, was administered orally to female Wistar rats. In study 1, compound of Formula (III) was evaluated at oral doses of 0.3, 1, 3 and 10 mg/kg; in study 2, compound of Formula (III) was evaluated at oral doses of 0.1, 0.3, 1, 2 and 3 mg/kg. (n=4/group for both studies). In both experiments, at assigned time points postdose (0.5, 4, 8 and 24 hr), animals were anesthetized and approximately 140 μL of blood was obtained by retro-orbital bleeding into heparinized tubes. These samples were split into two aliquots, with one aliquot used to measure compound levels by liquid chromatography mass spectrophotometry method and the other aliquot to assess BTK occupancy by a target-site occupancy ELISA.
Cell lysates were prepared from the blood samples using cell lysis buffer (BD Pharmingen™, BD Biosciences). Free BTK protein in each sample is tagged by the addition a biotinylated probe (1 μL of a 25 μM working solution per sample, final concentration 250 nM), which is then captured on the surface of a streptavidin coated microtiter plate and detected by ELISA using an antibody specific for BTK (BD Transduction). […]

MDCK-MDR1 (Pgp) = assay: MDCK-MDR1 permeability and efflux
Method: In vitro Absorption, Distribution, Metabolism, and Excretion—The compound of Formula (III) was assessed at a concentration of 5 μM in cell permeability models.

T1 sequence (Q5S255 1-660): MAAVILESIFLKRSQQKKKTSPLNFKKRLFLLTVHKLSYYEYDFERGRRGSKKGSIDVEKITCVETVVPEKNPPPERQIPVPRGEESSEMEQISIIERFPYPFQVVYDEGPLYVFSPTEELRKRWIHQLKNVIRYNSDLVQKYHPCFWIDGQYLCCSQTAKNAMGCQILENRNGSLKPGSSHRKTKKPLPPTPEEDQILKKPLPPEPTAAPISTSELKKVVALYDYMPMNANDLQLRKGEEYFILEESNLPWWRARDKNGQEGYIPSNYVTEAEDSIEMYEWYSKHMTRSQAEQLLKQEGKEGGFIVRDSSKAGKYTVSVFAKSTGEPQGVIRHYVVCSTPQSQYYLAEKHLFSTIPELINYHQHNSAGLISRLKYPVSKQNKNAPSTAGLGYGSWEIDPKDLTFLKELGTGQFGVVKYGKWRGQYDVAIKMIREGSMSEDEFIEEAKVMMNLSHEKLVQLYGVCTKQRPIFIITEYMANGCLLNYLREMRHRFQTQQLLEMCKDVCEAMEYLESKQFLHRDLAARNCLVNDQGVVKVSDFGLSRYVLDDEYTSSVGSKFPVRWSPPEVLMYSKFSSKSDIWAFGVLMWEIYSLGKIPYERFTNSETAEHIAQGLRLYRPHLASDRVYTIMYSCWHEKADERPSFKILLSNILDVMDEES
Sequence of BTK (Homo sapiens, UniProt Q06187) (Q06187 whole entry): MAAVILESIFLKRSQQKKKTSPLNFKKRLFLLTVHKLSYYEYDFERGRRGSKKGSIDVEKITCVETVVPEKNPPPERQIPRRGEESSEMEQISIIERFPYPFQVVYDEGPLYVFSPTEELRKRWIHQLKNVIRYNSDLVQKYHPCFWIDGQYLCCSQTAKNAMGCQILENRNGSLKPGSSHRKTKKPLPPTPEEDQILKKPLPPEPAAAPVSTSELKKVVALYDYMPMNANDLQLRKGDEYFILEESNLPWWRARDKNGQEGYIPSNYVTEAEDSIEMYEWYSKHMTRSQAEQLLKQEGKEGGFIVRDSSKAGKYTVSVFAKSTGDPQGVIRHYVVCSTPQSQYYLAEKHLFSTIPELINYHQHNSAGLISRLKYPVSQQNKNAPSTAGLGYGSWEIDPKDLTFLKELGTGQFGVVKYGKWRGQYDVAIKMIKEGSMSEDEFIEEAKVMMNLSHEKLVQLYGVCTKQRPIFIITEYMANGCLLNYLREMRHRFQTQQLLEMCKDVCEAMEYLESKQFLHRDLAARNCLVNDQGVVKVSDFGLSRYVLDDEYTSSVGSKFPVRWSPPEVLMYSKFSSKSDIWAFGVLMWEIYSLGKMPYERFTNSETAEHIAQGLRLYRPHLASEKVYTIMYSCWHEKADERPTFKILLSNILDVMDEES

## C=CC(=O)N[C@H]1CCC[C@H]1NC(=O)c1sc2nccc3c2c1NC(=O)N3c1cnc(CC(C)C)cc1C (atropisomer, axis not shown) [compound of Formula (III), N-((1R,2S)-2-Acrylamidocyclopentyl)-5-(S)-(6-isobutyl-4-methylpyridin-3-yl)-4-oxo-4,5-dihydro-3H-1-thia-3,5,8-triazaacenaphthylene-2-carboxamide]
[1]
  fraction unbound at 1 μM: 0.317
[2]; model (A), first 5 SAD cohorts
  V2/F, popPK estimate: 43.0 L
[2]; model (B), all SAD and MAD data
  V2/F, popPK estimate: 49.5 L
BTK [3]; 36 mg QD
  BTKO at 24 hr, ss, median observed: 69.5%
  Calculated Average BTKO, observed: 74.2%
  Max BTKO at ss, median observed: 78.9%
BTK [3]; 36 mg QD, day 1, 4 hours
  mean % BTKO: 34%
BTK [3]; 36 mg QD, day 10, 4 hours
  mean % BTKO: 80%
BTK [3]; 100 mg QD
  BTKO at 24 hr, ss, median observed: 84.1%
  Calculated Average BTKO, observed: 89.1%
  Max BTKO at ss, median observed: 94.1%
BTK [3]; 100 mg QD, day 1, 4 hours
  mean % BTKO: 61%
BTK [3]; 100 mg QD, day 10, 4 hours
  mean % BTKO: 91%
BTK [3]; 200 mg QD
  BTKO at 24 hr, ss, median observed: 78.9%
  Calculated Average BTKO, observed: 88.8%
  Max BTKO at ss, median observed: 98.8%
BTK [3]; 200 mg QD, day 1, 4 hours
  mean % BTKO: 94%
BTK [3]; 200 mg QD, day 10, 4 hours
  mean % BTKO: 98%
BTK [3]; 4 hours post-dose
  mean % BTKO lower, capsule vs solution: ≈ 37%
BTK [3]; 24 hours post-dose
  mean % BTKO lower, capsule vs solution: ≈ 30%
BTK [3]; Part 1, all treatment groups
  mean % BTKO at follow-up visit (7-14 days): ≤ 42%
BTK [3]; Part 2, all treatment groups
  mean % BTKO at follow-up visit (7 to 14 days): < 40%
BTK [3]; 24 hours after Day 10 dose
  mean BTKO: above 65%
BTK [3]; 72 hours after Day 10 dose
  mean BTKO: > 30%
BTK [3]; single 36 mg, females, 4 hours
  mean % BTKO: 55%
BTK [3]; single 36 mg, males, 4 hours
  mean % BTKO: 39%
BTK [3]; single 100 mg solution, fed, 8 hours post-dose
  peak mean % BTKO: 73%
BTK [3]; single 100 mg solution, male fasted, 4 hours post-dose
  mean % BTKO: 86%
BTK [3]; single 100 mg, females, 4 hours
  mean % BTKO: 81%
BTK [3]; single 105 mg capsule, 4 hours
  mean % BTKO: 54%
BTK [3]; single 105 mg capsule, 24 hours
  mean % BTKO: 53%
BTK [3]; single and multiple doses ≥100 mg
  maximum % BTKO (mean): ≥ 90%
BTK [3]; single doses ≥100 mg
  duration of BTKO: up to 72 hours
BTK [3]; single doses ≥100 mg, male fasted, 4 hours
  % BTKO: ~100%
[4]
  kinases inhibited >50%: 4/278
BTK [5]; single oral 2 mg/kg
  receptor occupancy at 2 mg/kg: > 75%
BTK [5]; single oral 3 mg/kg
  receptor occupancy at 3 mg/kg: ≥ 88%
BTK [5]; single oral 10 mg/kg
  receptor occupancy at 10 mg/kg: ≥ 99%
MDCK-MDR1 (Pgp)
  Efflux Ratio (BA/AB): >115
